# Data: publication PMC5399447, “Neuroprotective pentapeptide CN-105 is associated with reduced sterile inflammation and improved functional outcomes in a traumatic brain injury murine model” (Scientific Reports, 2017)
# System: 84 genes related to inflammatory and autoimmune processes
# Assay: Mouse Inflammatory Response and Autoimmunity PCR Array, whole brain
# Type: in vivo
# Design: key to Il9 ΔCt value, S-CN-105 / Il8ra ΔCt value, S-CN-105 / Il1rn ΔCt value, S-CN-105 / Il1f10 ΔCt value, S-CN-105 / Crp ΔCt value, S-CN-105: *: Indicate mRNA expression was below the level of detection
# Conditions: brain 24 h
# Description: Frozen, pulverized whole brain tissue was processed for RNA extraction from a separate cohort of treated and untreated injured animals on days 1 post-injury(CN-105, n = 4; vehicle, n = 3; Control(sham-operated), n = 3). Total RNA was extracted from frozen, pulverized whole brain tissue using RNeasy Lipid Tissue Mini Kit(Qiagen, Valencia, CA). RNA quantity and quality was assessed with the NanoDrop ND-1000 spectrophotometer(NanoDrop Technologies, Inc., Wilmington, DE) and by agarose gel electrophoresis. Only samples with a 260/280 ratio between 1.9–2.1, and a 260/230 ratio greater than 2.0, were further processed. First strand complementary DNA(cDNA) was generated from 2 μg total RNA using the RT[2] First strand kit(SABiosciences, Frederick, MD.)
# Gene expression was measured using the Mouse Inflammatory Response and Autoimmunity PCR Array(SABiosciences, Frederick, MD), which profiles the expression of 84 genes related to inflammatory and autoimmune processes. RT-PCR was performed according to manufacturer’s instructions Quality of the cDNA and PCR efficiency was verified by housekeeping genes and RT-PCR controls included in the PCR Array.
# Raw RT-PCR data were analyzed using the Web-Based PCR Array Data Analysis software(SABiosciences). ΔCt values and ΔΔCt - based fold-change were calculated from raw threshold cycle data, using beta-actin and glyceraldehyde 3-phosphate dehydrogenase(GAPDH) as internal standards for normalization. Fold changes were then normalized against sham-operated controls.
substance,measurement,setting,value
Ac-VSRRR-amide [CN-105],Fos fold change TBI-CN-105/S-v,TBI CN-105 vs sham vehicle,1.1
same,Hdac4 fold change TBI-CN-105/S-v,TBI CN-105 vs sham vehicle,13.9
same,Ifng fold change TBI-CN-105/S-v,TBI CN-105 vs sham vehicle,59.7
same,Il1a fold change TBI-CN-105/S-v,TBI CN-105 vs sham vehicle,37.7
same,Il1b fold change TBI-CN-105/S-v,TBI CN-105 vs sham vehicle,416.6
same,Il1f10 fold change TBI-CN-105/S-v,TBI CN-105 vs sham vehicle,352.3
same,Il1r1 fold change TBI-CN-105/S-v,TBI CN-105 vs sham vehicle,−6.2
same,Il1rap fold change TBI-CN-105/S-v,TBI CN-105 vs sham vehicle,−37.5
same,Il1rn fold change TBI-CN-105/S-v,TBI CN-105 vs sham vehicle,74.2
same,Il6 fold change TBI-CN-105/S-v,TBI CN-105 vs sham vehicle,13.2
same,Il6ra fold change TBI-CN-105/S-v,TBI CN-105 vs sham vehicle,47.9
same,Il7 fold change TBI-CN-105/S-v,TBI CN-105 vs sham vehicle,5569.8
same,Il8ra fold change TBI-CN-105/S-v,TBI CN-105 vs sham vehicle,196.8
same,Il8rb fold change TBI-CN-105/S-v,TBI CN-105 vs sham vehicle,658.4
same,Il9 fold change TBI-CN-105/S-v,TBI CN-105 vs sham vehicle,1155.5
same,Il10 fold change TBI-CN-105/S-v,TBI CN-105 vs sham vehicle,82.2
same,Il10rb fold change TBI-CN-105/S-v,TBI CN-105 vs sham vehicle,1.5
same,Il18 fold change TBI-CN-105/S-v,TBI CN-105 vs sham vehicle,−9.5
same,Il18rap fold change TBI-CN-105/S-v,TBI CN-105 vs sham vehicle,58.6
same,Il22 fold change TBI-CN-105/S-v,TBI CN-105 vs sham vehicle,77.8
same,Il22ra2 fold change TBI-CN-105/S-v,TBI CN-105 vs sham vehicle,3448.3
same,Il23a fold change TBI-CN-105/S-v,TBI CN-105 vs sham vehicle,838.4
same,Il23r fold change TBI-CN-105/S-v,TBI CN-105 vs sham vehicle,7.2
same,Itgb2 fold change TBI-CN-105/S-v,TBI CN-105 vs sham vehicle,9.6
same,Lta fold change TBI-CN-105/S-v,TBI CN-105 vs sham vehicle,917.0
same,Ltb fold change TBI-CN-105/S-v,TBI CN-105 vs sham vehicle,75.7
same,Ly96 fold change TBI-CN-105/S-v,TBI CN-105 vs sham vehicle,19.9
same,Myd88 fold change TBI-CN-105/S-v,TBI CN-105 vs sham vehicle,8.5
same,Nfatc3 fold change TBI-CN-105/S-v,TBI CN-105 vs sham vehicle,364.7
same,Nfkb1 fold change TBI-CN-105/S-v,TBI CN-105 vs sham vehicle,−3.1
same,Nos2 fold change TBI-CN-105/S-v,TBI CN-105 vs sham vehicle,1779.4
same,Nr3c1 fold change TBI-CN-105/S-v,TBI CN-105 vs sham vehicle,−17.8
same,Ripk2 fold change TBI-CN-105/S-v,TBI CN-105 vs sham vehicle,30.1
same,Tirap fold change TBI-CN-105/S-v,TBI CN-105 vs sham vehicle,14.0
same,Tlr1 fold change TBI-CN-105/S-v,TBI CN-105 vs sham vehicle,15.4
same,Tlr2 fold change TBI-CN-105/S-v,TBI CN-105 vs sham vehicle,10.0
same,Tlr3 fold change TBI-CN-105/S-v,TBI CN-105 vs sham vehicle,3.9
same,Tlr4 fold change TBI-CN-105/S-v,TBI CN-105 vs sham vehicle,6.5
same,Tlr5 fold change TBI-CN-105/S-v,TBI CN-105 vs sham vehicle,2.5
same,Tlr6 fold change TBI-CN-105/S-v,TBI CN-105 vs sham vehicle,14.9
same,Tlr7 fold change TBI-CN-105/S-v,TBI CN-105 vs sham vehicle,546.2
same,Tnf fold change TBI-CN-105/S-v,TBI CN-105 vs sham vehicle,1367.7
same,Tnfsf14 fold change TBI-CN-105/S-v,TBI CN-105 vs sham vehicle,365.9
same,Tollip fold change TBI-CN-105/S-v,TBI CN-105 vs sham vehicle,−3.2
same,"Bcl6 ΔCt value, S-CN-105",sham + CN-105 0.05 mg/kg iv,6.6E − 02
same,"C3ar1 ΔCt value, S-CN-105",sham + CN-105 0.05 mg/kg iv,4.1E − 03
same,"C3 ΔCt value, S-CN-105",sham + CN-105 0.05 mg/kg iv,7.0E − 04
same,"C4b ΔCt value, S-CN-105",sham + CN-105 0.05 mg/kg iv,7.0E − 03
same,"Ccl1 ΔCt value, S-CN-105",sham + CN-105 0.05 mg/kg iv,2.3E − 05
same,"Ccl2 ΔCt value, S-CN-105",sham + CN-105 0.05 mg/kg iv,8.3E − 04
same,"Ccl3 ΔCt value, S-CN-105",sham + CN-105 0.05 mg/kg iv,8.0E − 04
same,"Ccl4 ΔCt value, S-CN-105",sham + CN-105 0.05 mg/kg iv,3.8E − 04
same,"Ccl5 ΔCt value, S-CN-105",sham + CN-105 0.05 mg/kg iv,1.1E − 03
same,"Ccl7 ΔCt value, S-CN-105",sham + CN-105 0.05 mg/kg iv,1.6E − 03
same,"Ccl8 ΔCt value, S-CN-105",sham + CN-105 0.05 mg/kg iv,2.1E − 03
same,"Ccl11 ΔCt value, S-CN-105",sham + CN-105 0.05 mg/kg iv,2.5E − 04
same,"Ccl12 ΔCt value, S-CN-105",sham + CN-105 0.05 mg/kg iv,6.5E − 03
same,"Ccl17 ΔCt value, S-CN-105",sham + CN-105 0.05 mg/kg iv,4.2E − 03
same,"Ccl19 ΔCt value, S-CN-105",sham + CN-105 0.05 mg/kg iv,2.9E − 02
same,"Ccl20 ΔCt value, S-CN-105",sham + CN-105 0.05 mg/kg iv,1.1E − 04
same,"Ccl22 ΔCt value, S-CN-105",sham + CN-105 0.05 mg/kg iv,3.8E − 04
same,"Ccl24 ΔCt value, S-CN-105",sham + CN-105 0.05 mg/kg iv,9.7E − 05
same,"Ccl25 ΔCt value, S-CN-105",sham + CN-105 0.05 mg/kg iv,1.4E − 02
same,"Ccr1 ΔCt value, S-CN-105",sham + CN-105 0.05 mg/kg iv,7.1E − 04
same,"Ccr2 ΔCt value, S-CN-105",sham + CN-105 0.05 mg/kg iv,5.5E − 04
same,"Ccr3 ΔCt value, S-CN-105",sham + CN-105 0.05 mg/kg iv,2.1E − 03
same,"Ccr4 ΔCt value, S-CN-105",sham + CN-105 0.05 mg/kg iv,6.0E − 06
same,"Ccr7 ΔCt value, S-CN-105",sham + CN-105 0.05 mg/kg iv,2.1E − 04
same,"Cd40lg ΔCt value, S-CN-105",sham + CN-105 0.05 mg/kg iv,6.9E − 05
same,"Cd40 ΔCt value, S-CN-105",sham + CN-105 0.05 mg/kg iv,8.3E − 04
same,"Cebpb ΔCt value, S-CN-105",sham + CN-105 0.05 mg/kg iv,1.1E − 01
same,"Crp ΔCt value, S-CN-105",sham + CN-105 0.05 mg/kg iv,*
same,"Csf1 ΔCt value, S-CN-105",sham + CN-105 0.05 mg/kg iv,1.9E − 02
same,"Cxcl1 ΔCt value, S-CN-105",sham + CN-105 0.05 mg/kg iv,1.6E − 04
same,"Cxcl2 ΔCt value, S-CN-105",sham + CN-105 0.05 mg/kg iv,2.8E − 04
same,"Cxcl3 ΔCt value, S-CN-105",sham + CN-105 0.05 mg/kg iv,2.3E − 05
same,"Cxcl5 ΔCt value, S-CN-105",sham + CN-105 0.05 mg/kg iv,2.5E − 03
same,"Cxcl9 ΔCt value, S-CN-105",sham + CN-105 0.05 mg/kg iv,1.0E − 04
same,"Cxcl10 ΔCt value, S-CN-105",sham + CN-105 0.05 mg/kg iv,1.9E − 03
same,"Cxcl11 ΔCt value, S-CN-105",sham + CN-105 0.05 mg/kg iv,9.0E − 05
same,"Cxcr4 ΔCt value, S-CN-105",sham + CN-105 0.05 mg/kg iv,6.6E − 03
same,"Fasl ΔCt value, S-CN-105",sham + CN-105 0.05 mg/kg iv,1.9E − 04
same,"Flt3l ΔCt value, S-CN-105",sham + CN-105 0.05 mg/kg iv,3.0E − 03
same,"Fos ΔCt value, S-CN-105",sham + CN-105 0.05 mg/kg iv,2.3E − 01
same,"Hdac4 ΔCt value, S-CN-105",sham + CN-105 0.05 mg/kg iv,9.1E − 02
same,"Ifng ΔCt value, S-CN-105",sham + CN-105 0.05 mg/kg iv,5.8E − 05
same,"Il1a ΔCt value, S-CN-105",sham + CN-105 0.05 mg/kg iv,1.9E − 03
same,"Il1b ΔCt value, S-CN-105",sham + CN-105 0.05 mg/kg iv,2.0E − 03
same,"Il1f10 ΔCt value, S-CN-105",sham + CN-105 0.05 mg/kg iv,*
same,"Il1r1 ΔCt value, S-CN-105",sham + CN-105 0.05 mg/kg iv,1.2E − 02
same,"Il1rap ΔCt value, S-CN-105",sham + CN-105 0.05 mg/kg iv,4.4E − 02
same,"Il1rn ΔCt value, S-CN-105",sham + CN-105 0.05 mg/kg iv,*
same,"Il6ra ΔCt value, S-CN-105",sham + CN-105 0.05 mg/kg iv,4.9E − 03
same,"Il6 ΔCt value, S-CN-105",sham + CN-105 0.05 mg/kg iv,1.1E − 04
same,"Il7 ΔCt value, S-CN-105",sham + CN-105 0.05 mg/kg iv,3.2E − 04
same,"Il8ra ΔCt value, S-CN-105",sham + CN-105 0.05 mg/kg iv,*
same,"Il8rb ΔCt value, S-CN-105",sham + CN-105 0.05 mg/kg iv,6.1E − 05
same,"Il9 ΔCt value, S-CN-105",sham + CN-105 0.05 mg/kg iv,*
same,"Il10rb ΔCt value, S-CN-105",sham + CN-105 0.05 mg/kg iv,3.0E − 02
same,"Il10 ΔCt value, S-CN-105",sham + CN-105 0.05 mg/kg iv,1.1E − 04
same,"Il18rap ΔCt value, S-CN-105",sham + CN-105 0.05 mg/kg iv,4.5E − 05
same,"Il18 ΔCt value, S-CN-105",sham + CN-105 0.05 mg/kg iv,1.8E − 01
